As usually defined, the EC50 is the concentration needed to bring the measured effect to its halfway point. Higher therefore signals a need for much substance. What is called IC50 is the concentration needed to halve the response being measured.

From US9643964B2, “3-(2-aminopyrimidin-4-yl)-5-(3-hydroxypropynyl)-1H-pyrrolo[2,3-C]pyridine derivatives as NIK inhibitors for the treatment of cancer” (Janssen Pharmaceutica NV, priority 2013, dated 2017) come the findings set out here.

Test [1] concerns L-363 cells. Briefly: Biological Assay C: antiproliferative activity on L-363 cells (CellTiter-Glo). Type of test: cell-based, human. Conditions: Homo sapiens, L-363, 72 h, 72 hr treatment; averaged values. An outline of the steps:
(§1)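 CellTiter-Glo luminescence after 72 h exposure, blank (cells read at compound addition) subtracted, growth expressed as % of untreated control; duplicate wells. Suspension cells in RPMI/10% FCS, 2,000–6,000 cells/well, 0.3% DMSO.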
In general terms: Cellular ATP, detected with luciferase, serves as a proxy for viable cell number.

The test system of test [2] is P-IKKα levels in L363 cells. Briefly: Biological Assay B: effect of compounds on P-IKKα levels in L363 cells. The test is classed as cell-based. To be noted: Homo sapiens, L-363, averaged values, read-out: IKKα Cellular IC50. As to the method: Effect of Compounds on P-IKKα Levels in L363 Cells
All compounds tested were dissolved in DMSO and further dilutions were made in culture medium. Final DMSO concentration was 1% (v/v) in cell assays. The human L363 cells (ATCC) were cultured in RPMI 1640 medium supplemented with GlutaMax and 10% fetal calf serum (PAA). Cells were routinely maintained at densities of 0.2×10^6 cells per ml-1×10^6 cells per ml at 37° C. in a humidified 5% CO2 atmosphere. Cells were passaged twice a week splitting back to obtain the low density. Cells were seeded in 96 well plates (Nunc 167008) at 2×10^6 per ml media in a volume of 75 μl per well plus 25 μl 1 μg/ml recombinant human B-cell activating factor BAFF/B1YS/TNFSF13B. Seeded cells were incubated at 37° C. in a humidified 5% CO2 atmosphere for 24 hr. Drugs and/or solvents were added (20 μl) to a final volume of 120 μl. Following 2 hr treatment plates were removed from the incubator and cell lysis was achieved by the addition of 30 μl 5× lysis buffer followed by shaking on a plate shaker at 4° C. for 10 min. At the end of this incubation lysed cells were centrifuged at 800×g for 20 min at 4° C. and the lysate was assessed for P-IKKα levels by sandwich immuno-assay carried out in anti-rabbit antibody coated Mesoscale plates. Within an experiment, the results for each treatment were the mean of 2 replicate wells. For initial screening purposes, compounds were tested using an 8 point dilution curve (serial 1:3 dilutions). For each experiment, controls (containing MG132 and BAFF but no test drug) and a blank incubation (containing MG132 and BAFF and 10 μM ADS125117, a test concentration known to give full inhibition) were run in parallel. The blank incubation value was subtracted from all control and sample values. To determine the IC50 a sigmoidal curve was fitted to the plot of % inhibition of control P-IKKα levels versus Log10 compound concentration.

Test [3] has as its system JJN-3 cells. Briefly: Biological Assay C: antiproliferative activity on JJN-3 cells (CellTiter-Glo). Conditions: Homo sapiens, JJN-3, 72 h, 72 hr treatment; averaged values. The test is classed as cell-based, human. Put shortly: as §1
Test [4] addresses T1, Recombinant Human NF-kappaB-Inducing Kinase (NIK/MAP3K14) (Homo sapiens, UniProt Q99558). Briefly: Biological Assay A2: inhibition of auto-phosphorylation of recombinant human NIK/MAP3K14 (AlphaScreen). Type of test: biochemical. Conditions: auto-phosphorylation; averaged over all measurements on all batches; read-out: αscreen IC50. Put shortly:
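GST-tagged NIK/MAP3K14 (0.2 nM) auto-phosphorylation with 25 microM ATP in 50 mM Tris pH 7.5, 5 mM MgCl2, 1% DMSO; 1 h at 25° C. Phospho-IKK Ser176/180 detected by AlphaScreen; blank-subtracted % inhibition fitted sigmoidally vs log concentration for IC50.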
(Bead proximity is the source of the signal in Alpha formats.)

For test [5], the system named is LP-1 cells. Briefly: Biological Assay C: antiproliferative activity on LP-1 cells (CellTiter-Glo). Conditions: Homo sapiens, LP-1, 72 h, 72 hr treatment; averaged values. Type of test: cell-based, human. An outline of the steps: as §1
Test [6] addresses T1, Recombinant Human NF-kappaB-Inducing Kinase (NIK/MAP3K14). Briefly: Biological Assay A: inhibition of recombinant human NIK/MAP3K14 activity (MBP phosphorylation, Mesoscale). Type of test: biochemical. To be noted: averaged over all measurements on all batches; read-out: Biochemical (MSD MBP) IC50. An outline of the steps:
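10 nM NIK with 25 μM ATP on MBP-coated plates in Tris pH 7.5 buffer with MgCl2, DTT and Na3VO4 and 1% DMSO, for 1 h at 25° C. Phospho-MBP was detected by anti-phospho-MBP and Sulfotag electrochemiluminescence; after blank subtraction, IC50 came from a sigmoidal fit of % inhibition.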

Bounds are passed on as bounds.

T1 sequence (Q99558 whole entry): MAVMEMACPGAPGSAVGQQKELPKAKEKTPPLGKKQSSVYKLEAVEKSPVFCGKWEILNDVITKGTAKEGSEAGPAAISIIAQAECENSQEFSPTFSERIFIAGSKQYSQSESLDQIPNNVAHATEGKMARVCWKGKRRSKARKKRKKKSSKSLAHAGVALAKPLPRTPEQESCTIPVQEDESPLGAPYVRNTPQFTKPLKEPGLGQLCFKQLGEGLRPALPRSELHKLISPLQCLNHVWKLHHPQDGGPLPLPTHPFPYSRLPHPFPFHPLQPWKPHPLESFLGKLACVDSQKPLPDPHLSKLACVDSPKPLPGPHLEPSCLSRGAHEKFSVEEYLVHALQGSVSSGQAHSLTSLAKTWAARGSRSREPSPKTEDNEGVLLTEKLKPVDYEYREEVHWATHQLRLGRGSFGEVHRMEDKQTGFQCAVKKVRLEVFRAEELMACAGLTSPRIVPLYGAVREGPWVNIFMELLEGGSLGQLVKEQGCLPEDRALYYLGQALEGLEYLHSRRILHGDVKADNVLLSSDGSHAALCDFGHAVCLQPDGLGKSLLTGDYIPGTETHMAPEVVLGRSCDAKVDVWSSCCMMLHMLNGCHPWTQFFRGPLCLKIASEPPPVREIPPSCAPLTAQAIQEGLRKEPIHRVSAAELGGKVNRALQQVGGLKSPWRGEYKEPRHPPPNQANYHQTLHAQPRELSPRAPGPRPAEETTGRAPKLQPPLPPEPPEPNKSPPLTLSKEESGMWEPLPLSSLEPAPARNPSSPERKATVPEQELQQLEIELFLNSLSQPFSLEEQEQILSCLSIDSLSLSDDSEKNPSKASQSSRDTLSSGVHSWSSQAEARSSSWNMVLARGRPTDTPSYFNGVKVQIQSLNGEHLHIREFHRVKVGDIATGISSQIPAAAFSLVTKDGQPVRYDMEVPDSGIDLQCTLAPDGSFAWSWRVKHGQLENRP

With `CN1CC(n2cc(-c3nc(N)ncc3F)c3cc(C#CC(C)(C)O)ncc32)C1` [Compound 70], the EC50 in test [1] amounted to 120 nM; in test [3], 210 nM; in test [5], 3000 nM. In addition, the half-inhibitory concentration (IC50) in test [2] is 51 nM; in test [4], 130 nM; in test [6] it was 28 nM.

With `CC(C)n1cc(-c2nc(N)ncc2Cl)c2cc(C#CC(C)(C)O)ncc21` [Compound 16], the half-maximal effective concentration (EC50) in test [1] turned out to be 57 nM; in test [3] it was 35 nM; in test [5], 92 nM. The half-inhibitory concentration (IC50) is 7.3 nM in test [2], 2 nM in test [4] and 4.3 nM in test [6].

Take `CC(C)(O)Cn1cc(-c2ccnc(N)n2)c2cc(C#CC3(O)CCCCC3)ncc21` [Compound 38]: the EC50 in test [1] is 15000 nM; in test [3], 1900 nM; in test [5], greater than 10000 nM. In addition, the values for the concentration for half-maximal inhibition (IC50) in test [2], in test [4] and in test [6] were 370 nM, 56 nM and 21 nM, respectively.

`COCCn1cc(-c2ccnc(N)n2)c2cc(C#CC(C)(O)c3ncco3)ncc21` (stereo not drawn) [Compound 31]: the values for the EC50 in test [1], in test [3] and in test [5] were 6400 nM, 1900 nM and greater than 10000 nM, respectively. For the same compound, the half-maximal inhibitory concentration (IC50) in test [2] is 110 nM; in test [4], 79 nM; in test [6] it was 36 nM.

Regarding `CC(C)(O)Cn1cc(-c2nc(N)ncc2Cl)c2cc(C#CC3(O)CC3)ncc21` [Compound 21], the half-maximal effective concentration (EC50) came to 74 nM in test [1], 66 nM in test [3] and 2800 nM in test [5]. In addition, the IC50 in test [2] worked out at 13 nM; in test [4] it was 3 nM; in test [6] it was 18 nM.

In the case of `CNc1nccc(-c2cn(CC(C)(C)O)c3cnc(C#CC(C)(C)O)cc23)n1` [Compound 68], the 50% effective concentration (EC50) came to 960 nM in test [1], 1500 nM in test [3] and 16000 nM in test [5]. Further, the half-inhibitory concentration (IC50) came to 360 nM in test [2], 47 nM in test [4] and 130 nM in test [6].

`COCCn1cc(-c2ccnc(N)n2)c2cc(C#CC(C)(O)c3nccs3)ncc21` (stereo not drawn) [Compound 26]: the figures for the concentration for a half-maximal effect (EC50) in test [1], in test [3] and in test [5] were 11000 nM, 5600 nM and 15000 nM, respectively. Besides, the IC50 in test [2] turned out to be 120 nM; in test [4], 19 nM; in test [6], 49 nM.

In the case of `CC(C)(O)Cn1cc(-c2ccnc(N)n2)c2cc(C#CC(C)(O)C3CCC3)ncc21` (stereo not drawn) [Compound 37], the 50% effective concentration (EC50) in test [1] is 16000 nM; in test [3], 3600 nM; in test [5], greater than 10000 nM. The figures for the IC50 in test [2], in test [4] and in test [6] were 330 nM, 100 nM and 45 nM, respectively.

In the case of `COCCn1cc(-c2nc(N)ncc2C#N)c2cc(C#CC(C)(C)O)ncc21` [Compound 41], the figures for the 50% effective concentration (EC50) in test [1], in test [3] and in test [5] were 290 nM, 240 nM and 2200 nM, respectively. The figures for the IC50 in test [2], in test [4] and in test [6] were 43 nM, 9 nM and 3.5 nM, respectively.

For `CC(C)(O)C#Cc1cc2c(-c3ccnc(N)n3)cn(CC(C)(C)O)c2cn1` [Compound 3], the EC50 in test [1] is 230 nM; in test [3], 500 nM; in test [5] it was 11000 nM. Besides, the IC50 turned out to be 75 nM in test [2], 34 nM in test [4] and 15 nM in test [6].

With `CC(C)(O)C#Cc1cc2c(-c3ccnc(N)n3)cn(CCCN)c2cn1` [Compound 11], the EC50 was 130 nM in test [1], 41 nM in test [3] and 600 nM in test [5]. For the same compound, the values for the IC50 in test [2], in test [4] and in test [6] were 300 nM, 27 nM and 8 nM, respectively.

With `CC(C)(O)Cn1cc(-c2ccnc(N)n2)c2cc(C#CC(C)(O)C(F)(F)F)ncc21` (stereo not drawn) [Compound 111], the EC50 in test [1] amounted to 1300 nM; in test [3], 640 nM; in test [5], 7500 nM. Moreover, the half-inhibitory concentration (IC50) in test [2] was determined as 290 nM; in test [4], 190 nM; in test [6] it was 220 nM.

For the compound `CC(C)(O)C#Cc1cc2c(-c3ccnc(N)n3)cn(CCS(C)(=O)=O)c2cn1` [Compound 67], the EC50 in test [1] was 2400 nM; in test [3], 2400 nM; in test [5] it was greater than 10000 nM. Besides, the IC50 in test [2] was 880 nM; in test [4] it was 30 nM; in test [6], 57 nM.

Consider `CC(C)n1cc(-c2ccnc(N)n2)c2cc(C#CC(C)(C)O)ncc21` [Compound 15], for which the figures for the 50% effective concentration (EC50) in test [1], in test [3] and in test [5] were 44 nM, 120 nM and 370 nM, respectively. Moreover, the values for the half-inhibitory concentration (IC50) in test [2], in test [4] and in test [6] were 16 nM, 12 nM and 4.8 nM, respectively.

With `COCCCn1cc(-c2ccnc(N)n2)c2cc(C#CC(C)(C)O)ncc21` [Compound 44], the figures for the concentration giving a half-maximal response (EC50) in test [1], in test [3] and in test [5] were 400 nM, 250 nM and 1700 nM, respectively. Besides, the IC50 in test [2] came out at 36 nM; in test [4], 21 nM; in test [6], 25 nM.

Regarding `CC(C)(O)Cn1cc(-c2ccnc(N)n2)c2cc(C#CC3(O)CCOC3)ncc21` (stereo not drawn) [Compound 29], the EC50 in test [1], in test [3] and in test [5] was greater than 10000 nM in each case. Also, the IC50 in test [2] was 6300 nM; in test [4] it was 110 nM; in test [6] it was 140 nM.

Consider `CC(C)(O)C#Cc1cc2c(-c3ccnc(N)n3)cn(C3CNC3)c2cn1` [Compound 113], for which the values for the EC50 in test [1], in test [3] and in test [5] were 4600 nM, 1400 nM and 24000 nM, respectively. Also, the IC50 in test [2] turned out to be 660 nM; in test [4], 38 nM; in test [6], 52 nM.

With `CC(C)(O)C#Cc1cc2c(-c3ccnc(N)n3)cn(CCO)c2cn1` [Compound 12], the EC50 in test [1] turned out to be 1200 nM; in test [3], 1300 nM; in test [5], 12000 nM. The IC50 in test [2] was determined as 150 nM; in test [4], 3 nM; in test [6] it was 7.4 nM.

`CN(C)C(=O)CCn1cc(-c2ccnc(N)n2)c2cc(C#CC(C)(C)O)ncc21` [Compound 50]: the half-maximal effective concentration (EC50) in test [1] is 7500 nM; in test [3] it was 2700 nM; in test [5] it was greater than 10000 nM. In addition, the values for the IC50 in test [2], in test [4] and in test [6] were 650 nM, 230 nM and 140 nM, respectively.

Regarding `COCCn1cc(-c2nc(N)ncc2Cl)c2cc(C#CC(C)(C)O)ncc21` [Compound 25], the 50% effective concentration (EC50) in test [1] turned out to be 63 nM; in test [3] it was 110 nM; in test [5], 190 nM. The concentration for half-maximal inhibition (IC50) in test [2] was 11 nM; in test [4], 20 nM; in test [6], 9.9 nM.

As for `CNc1nccc(-c2c[nH]c3cnc(C#CC(C)(C)O)cc23)n1` [Compound 4], the results for the 50% effective concentration (EC50) in test [1], in test [3] and in test [5] were 400 nM, 420 nM and 5300 nM, respectively. The IC50 in test [2] turned out to be 130 nM; in test [4], 21 nM; in test [6] it was 46 nM.

As for `CCC(O)(C#Cc1cc2c(-c3ccnc(N)n3)cn(CCOC)c2cn1)CC` [Compound 35], the EC50 in test [1] amounted to 3000 nM; in test [3], 2000 nM; in test [5], 3800 nM. Also, the values for the half-maximal inhibitory concentration (IC50) in test [2], in test [4] and in test [6] were 470 nM, 150 nM and 120 nM, respectively.

For `CC(C)(O)C#Cc1cc2c(-c3ccnc(N)n3)cn(CCC#N)c2cn1` [Compound 57], the concentration for a half-maximal effect (EC50) was 910 nM in test [1], 1300 nM in test [3] and 31000 nM in test [5]. Besides, the half-maximal inhibitory concentration (IC50) in test [2] was determined as 180 nM; in test [4] it was 23 nM; in test [6] it was 17 nM.
